From paper PMC6891286, “Towards the Development of an In vivo Chemical Probe for Cyclin G Associated Kinase (GAK)” (Molecules, 2019)
Like-named read-outs stand apart in the source and are kept apart here.

What was measured:
GAK [1] = target: T1, GAK (Homo sapiens, UniProt O14976); experiment: TR-FRET ligand-binding displacement assay
T1 sequence (O14976 1-1311): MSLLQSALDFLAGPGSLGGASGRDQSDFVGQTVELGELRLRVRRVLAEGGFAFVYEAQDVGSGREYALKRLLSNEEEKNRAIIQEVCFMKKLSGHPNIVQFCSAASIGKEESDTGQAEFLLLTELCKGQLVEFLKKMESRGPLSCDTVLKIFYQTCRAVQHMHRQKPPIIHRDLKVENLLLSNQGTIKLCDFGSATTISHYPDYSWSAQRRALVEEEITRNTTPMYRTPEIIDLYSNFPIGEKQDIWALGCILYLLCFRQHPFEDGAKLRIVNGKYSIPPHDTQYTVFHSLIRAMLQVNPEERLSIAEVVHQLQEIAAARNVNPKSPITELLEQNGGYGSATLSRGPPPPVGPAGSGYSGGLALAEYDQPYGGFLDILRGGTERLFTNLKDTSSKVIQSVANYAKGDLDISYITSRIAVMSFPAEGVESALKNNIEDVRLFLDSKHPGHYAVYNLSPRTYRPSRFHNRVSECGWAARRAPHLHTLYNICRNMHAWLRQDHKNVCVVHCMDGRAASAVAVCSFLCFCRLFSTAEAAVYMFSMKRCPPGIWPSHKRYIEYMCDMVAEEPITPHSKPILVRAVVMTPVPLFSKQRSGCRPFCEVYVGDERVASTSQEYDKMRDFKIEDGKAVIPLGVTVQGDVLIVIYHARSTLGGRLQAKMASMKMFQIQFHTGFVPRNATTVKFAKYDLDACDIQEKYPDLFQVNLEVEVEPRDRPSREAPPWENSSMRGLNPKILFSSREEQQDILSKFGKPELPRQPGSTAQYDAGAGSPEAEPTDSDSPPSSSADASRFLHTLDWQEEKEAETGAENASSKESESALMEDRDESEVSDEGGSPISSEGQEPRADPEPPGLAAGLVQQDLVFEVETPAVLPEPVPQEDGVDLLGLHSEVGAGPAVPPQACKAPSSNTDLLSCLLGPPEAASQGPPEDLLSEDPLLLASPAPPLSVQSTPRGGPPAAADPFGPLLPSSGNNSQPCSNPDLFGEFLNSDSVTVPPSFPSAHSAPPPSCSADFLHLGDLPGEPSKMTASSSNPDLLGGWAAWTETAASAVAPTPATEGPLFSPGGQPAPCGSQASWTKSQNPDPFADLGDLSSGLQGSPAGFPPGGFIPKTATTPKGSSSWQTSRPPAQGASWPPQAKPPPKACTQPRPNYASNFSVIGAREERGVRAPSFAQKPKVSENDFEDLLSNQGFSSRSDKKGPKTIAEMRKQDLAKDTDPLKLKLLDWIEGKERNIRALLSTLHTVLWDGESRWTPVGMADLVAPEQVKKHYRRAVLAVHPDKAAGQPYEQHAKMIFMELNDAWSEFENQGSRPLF

[2] = mouse liver microsome metabolic stability; details: mouse liver microsomes; for T1/2 Ratio (+) ABT / T1/2 Ratio (−) ABT: normalized to propranolol; for T1/2 Ratio: normalization with respect to internal control (propranolol); for CLint scaled / half-life: mouse; for half-life: mean average, n = 2
Protocol: SGC-GAK-1 (1) was incubated with MLMs in the presence or absence of added NADPH, and the compound was quantified at various time points over an hour.
The metabolic stability of the 4-anilinoquinolines (8–13) were evaluated in MLMs (Table 1). Half-lives for metabolic clearance were normalized to propranolol in each experimental run to control for variations in the MLM preparations.

[3] = pharmacokinetic profiling in mice, oral dosing; assay type: in vivo; details: C57BL/6 mice, 10 mg/kg po
Protocol: Pharmacokinetic profiling was performed by SAI Life Sciences (Hyderabad, India). […] Prior approval of the Institutional Animal Ethics Committee (IAEC) was obtained before initiation of the study. Healthy male C57BL/6 mice (8–12 weeks old) weighing between 20 and 35 g were procured from (Envigo Research Private Ltd., City, Hyderabad, India). Three mice were housed in each cage. […] Temperature and humidity were recorded by an automatically controlled data logger system. All animals were provided a laboratory rodent diet (Envigo Research Private Ltd., Hyderabad, India). Reverse osmosis water treated with ultraviolet light was provided ad libitum. Eighteen male mice were weighed and divided in to two groups (Group 1 and Group 2), with nine mice in each group. […] The dosing volume administered was 10 mL/kg for the oral route. […] Plasma samples were separated by centrifugation at 4000 rpm for 10 min and stored below −70 °C until bioanalysis. […] The plasma concentration-time data were then used for the pharmacokinetic analysis. A non-compartmental analysis module in Phoenix WinNonlin (Version 6.3, Certara USA Inc., Raleigh, NC, USA) was used to assess the pharmacokinetic parameters. Maximum concentration (Cmax) and time to reach the maximum concentration (Tmax) were the observed values. The areas under the concentration time curve (AUClast and AUCinf) were calculated by linear trapezoidal rule.

AAK1 = AAK1 (Homo sapiens, UniProt Q2M2I8); experiment: NAK family TR-FRET binding displacement assay; details: NAK family FRET screening
BMP2K = BMP2K (Homo sapiens, UniProt Q9NSY1); experiment: NAK family TR-FRET binding displacement assay
STK16 = STK16 (Homo sapiens, UniProt O75716); experiment: NAK family TR-FRET binding displacement assay; details: NAK family FRET screening; read-out: Binding displacement assay STK16 Ki
Kinetic Solubility = assay type: physicochemical; details: pH 7.4, aqueous buffer, kinetic from dmso stock, PBS pH7.4 (100 µM)
GAK [4] = target: T1, GAK; details: TR-FRET assay; read-out: Biochemical GAK Ki; cited from earlier work
GAK [5] = target: T1, GAK; experiment: live cell NanoBRET target engagement assay; assay type: cell-based; details: nanoBRET; mean average, n = 2
EGFR(L747-T751del,Sins) = experiment: KINOMEscan; assay type: binding, human; details: 35 at 1 µM; read-out: % inhibition
Protocol: (§1) KinomeScan Assay on 35 was performed as previously described at EuroFins DiscoverX (Fremont, CA, USA).

FLT3(ITD) = experiment: KINOMEscan; assay type: binding, human; details: 35 at 1 µM; read-out: % inhibition
Protocol: as §1

[6] = Clint (mL/min/kg) (+) ABT, (+) ABT
[7] = Clint (mL/min/kg) (−) ABT, (−) ABT
[8] = T1/2 (min), mouse liver microsomes with NADPH
[9] = male, C57BL/6, mouse, plasma, po, 10 mg/kg, 2 h pretreat 50 mpk ABT
[10] = male, C57BL/6, mouse, plasma, po, 10 mg/kg, without ABT
[11] = read-out: Kinetic Solubility µM
[12] = read-out: Kinetic Solubility µg/mL

Sequence of AAK1 (Q2M2I8 whole entry): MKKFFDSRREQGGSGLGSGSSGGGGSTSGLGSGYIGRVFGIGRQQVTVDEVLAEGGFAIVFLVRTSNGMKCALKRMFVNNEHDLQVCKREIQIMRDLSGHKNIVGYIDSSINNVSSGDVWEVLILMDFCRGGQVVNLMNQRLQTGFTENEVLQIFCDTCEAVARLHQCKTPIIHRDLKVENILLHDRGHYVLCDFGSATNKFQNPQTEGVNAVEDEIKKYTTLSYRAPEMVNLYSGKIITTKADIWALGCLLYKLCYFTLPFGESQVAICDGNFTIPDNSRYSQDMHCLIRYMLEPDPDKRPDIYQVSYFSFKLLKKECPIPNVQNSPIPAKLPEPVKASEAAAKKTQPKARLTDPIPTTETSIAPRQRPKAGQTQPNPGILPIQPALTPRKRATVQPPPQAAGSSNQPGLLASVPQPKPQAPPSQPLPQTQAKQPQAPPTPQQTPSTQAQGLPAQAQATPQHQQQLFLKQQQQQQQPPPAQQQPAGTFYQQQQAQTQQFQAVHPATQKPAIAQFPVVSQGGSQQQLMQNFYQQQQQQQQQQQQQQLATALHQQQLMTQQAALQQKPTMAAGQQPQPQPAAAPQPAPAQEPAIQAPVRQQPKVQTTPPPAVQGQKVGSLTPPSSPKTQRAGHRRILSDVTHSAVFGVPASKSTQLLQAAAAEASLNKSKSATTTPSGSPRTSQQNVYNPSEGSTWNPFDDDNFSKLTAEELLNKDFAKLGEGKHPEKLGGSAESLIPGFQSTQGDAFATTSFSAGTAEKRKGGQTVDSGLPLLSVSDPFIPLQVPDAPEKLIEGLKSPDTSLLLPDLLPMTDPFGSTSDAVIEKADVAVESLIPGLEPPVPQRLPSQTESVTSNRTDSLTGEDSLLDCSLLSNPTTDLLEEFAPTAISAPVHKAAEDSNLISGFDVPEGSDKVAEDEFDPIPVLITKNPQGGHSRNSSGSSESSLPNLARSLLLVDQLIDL
Sequence of STK16 (O75716 whole entry): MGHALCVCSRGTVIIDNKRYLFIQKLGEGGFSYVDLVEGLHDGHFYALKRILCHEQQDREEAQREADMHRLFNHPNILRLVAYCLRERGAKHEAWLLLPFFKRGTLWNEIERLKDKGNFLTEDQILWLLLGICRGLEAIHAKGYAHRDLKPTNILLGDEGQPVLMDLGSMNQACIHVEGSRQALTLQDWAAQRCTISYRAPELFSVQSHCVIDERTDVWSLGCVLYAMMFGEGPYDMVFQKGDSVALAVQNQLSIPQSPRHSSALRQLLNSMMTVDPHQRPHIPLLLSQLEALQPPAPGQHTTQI
Sequence of BMP2K (Q9NSY1 whole entry): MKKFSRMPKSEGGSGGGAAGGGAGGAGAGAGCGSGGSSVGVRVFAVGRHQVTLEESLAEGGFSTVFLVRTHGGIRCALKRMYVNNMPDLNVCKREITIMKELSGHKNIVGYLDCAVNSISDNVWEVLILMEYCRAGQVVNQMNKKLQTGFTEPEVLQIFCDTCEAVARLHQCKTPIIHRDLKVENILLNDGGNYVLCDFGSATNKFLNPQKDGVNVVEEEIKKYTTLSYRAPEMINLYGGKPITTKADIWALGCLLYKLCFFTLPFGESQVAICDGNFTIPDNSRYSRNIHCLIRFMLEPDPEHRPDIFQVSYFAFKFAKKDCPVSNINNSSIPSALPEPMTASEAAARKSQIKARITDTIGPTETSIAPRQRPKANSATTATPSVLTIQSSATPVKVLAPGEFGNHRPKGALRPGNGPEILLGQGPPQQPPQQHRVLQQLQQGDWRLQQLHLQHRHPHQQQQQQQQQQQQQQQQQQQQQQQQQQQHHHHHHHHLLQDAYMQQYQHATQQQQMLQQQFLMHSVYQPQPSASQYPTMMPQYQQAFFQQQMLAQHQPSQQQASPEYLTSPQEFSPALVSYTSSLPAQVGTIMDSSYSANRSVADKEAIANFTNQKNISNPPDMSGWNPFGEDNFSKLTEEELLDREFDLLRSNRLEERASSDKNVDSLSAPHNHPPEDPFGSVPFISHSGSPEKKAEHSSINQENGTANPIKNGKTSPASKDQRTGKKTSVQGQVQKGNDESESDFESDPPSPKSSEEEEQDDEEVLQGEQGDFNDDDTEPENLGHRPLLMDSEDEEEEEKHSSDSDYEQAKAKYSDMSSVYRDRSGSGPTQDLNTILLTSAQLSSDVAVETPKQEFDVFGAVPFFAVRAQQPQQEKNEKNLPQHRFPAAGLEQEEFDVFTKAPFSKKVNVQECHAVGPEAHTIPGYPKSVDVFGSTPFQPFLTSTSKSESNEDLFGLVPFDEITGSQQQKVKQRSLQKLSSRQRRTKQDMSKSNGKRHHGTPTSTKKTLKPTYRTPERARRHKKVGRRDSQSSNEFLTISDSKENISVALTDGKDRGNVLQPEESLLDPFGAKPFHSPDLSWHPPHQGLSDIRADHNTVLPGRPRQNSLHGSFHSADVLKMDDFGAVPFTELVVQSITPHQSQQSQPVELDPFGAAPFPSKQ

| SMILES | T1/2 Ratio (+) ABT ([2]; (+) ABT) | T1/2 Ratio (−) ABT ([2]; (−) ABT) | T1/2 Ratio [2] | CLint scaled [2, 6] | CLint scaled [2, 7] | half-life ([2]; T1/2 (min) (+) ABT, (+) ABT) | half-life ([2]; T1/2 (min) (−) ABT, (−) ABT) | half-life [2, 8] | Ki (AAK1) | Ki (BMP2K) | Ki (STK16) | solubility kinetic (Kinetic Solubility; [11]) | solubility kinetic (Kinetic Solubility; [12]) | further results |
| --- | --- | --- | --- | --- | --- | --- | --- | --- | --- | --- | --- | --- | --- | --- |
| COc1cc2nccc(Nc3cc(OC)c(OC)c(OC)c3)c2cc1OC [Compound 8] | 14.7 | 1.3 | 1.6 | < 28 mL/min/kg | 320 mL/min/kg | > 200 min | 18 min | 12.2 min | 28000 nM | 63000 nM | > 100000 nM | 128 µM | 47.6 µg/mL | Ki (GAK [1]; NAK family FRET screening, read-out: Binding displacement assay GAK Ki): 0.54 nM; fold higher exposure with ABT pretreatment ([3]; 2 h pre-treatment with 50 mg/kg ABT vs without): 8 fold; time plasma concentration sustained at 2-fold above the cellular IC50 ([3]; pretreatment with ABT): > 8 h; AUC(0-inf) [3, 9]: 569 ng·h/mL; Tmax [3, 9]: 120 min; Cmax ([3]; male, C57BL/6, mouse, plasma, po, 10 mg/kg, 2 h pretreat 50 mpk ABT, read-out: Cmax): 107 ng/mL; AUC(0-inf) [3, 10]: 71 ng·h/mL; Tmax [3, 10]: 60 min; half-life ([3]; male, mouse, plasma, without ABT, read-out: T1/2 in mice): < 60 min; Ki (GAK [4]): 0.54 nM |
| Brc1ccc2nccc(Nc3ccc4cn[nH]c4c3)c2c1 [Compound 35, 6-Bromo-N-(1H-indazol-6-yl)quinolin-4-amine] | 17.5 | 9.8 | 9.8 | 35 mL/min/kg | 120 mL/min/kg | 170 min | 46 min | 45.6 min | 2100 nM | 6500 nM | 7400 nM | 12.3 µM | 4.2 µg/mL | Ki (GAK [1]; TR-FRET assay, read-out: Biochemical GAK Ki): 20 nM; IC50 (GAK [5]): 1400 nM; T1/2 ratios fold higher than 9 [2]: ≥ 2 fold; activity (EGFR(L747-T751del,Sins)): 100%; activity (FLT3(ITD)): 97% |
